A short description of data set [1]: Compatibility of nanocrystalline silver with excipients. Type of data set: physicochemical. Conditions: 10% aqueous solution of excipient, 40° C. overnight.
The test system of the next data set is Escherichia coli. The experiment in a line: MIC assay (microdilution). Type of data set: cell-based.
The test system of the next data set is Enterobacter cloacae. In words: MIC assay (microdilution). In kind it is cell-based. Background: In broth dilution the organism is exposed to a series of concentrations in liquid medium.
Data set [2] concerns Mycobacterium tuberculosis H37Ra (ATCC 25177). In words: microbe, parasite or virus in culture. In kind it is cell-based.
The next data set deals with TNF-α. The experiment in a line: Immunohistochemical staining of colon tissue. Particulars: oral treatment, five days. In kind it is in vivo, rat. On the procedure:
(§1) Immunohistochemistry: A Universal Streptavidin/Biotin detection system (Thermo Shandon, Pittsburgh, Pa.) was used for immunohistochemical staining of formalin fixed, paraffin embedded biopsies of the colon. After dewaxing, and hydration, sections were treated with protein blocking agent to reduce non-specific binding of antibodies. The tissues were then incubated with rabbit anti-rat TNF-α, or mouse anti-rat IL-12 p70 antibodies (Biosource International, Inc, Camarillo, Calif.); rabbit anti-rat IL-1β (Serotec, Raleigh, N.C.) or rabbit anti-rat MMP-9 antibody (Chemicon International, Telecuma, Calif.) in 1% bovine serum albumin in phosphate buffered saline. Incubations with secondary antibodies, streptavidin/biotin, and chromogenic detection of peroxidase were performed according to the manufacturer's protocol. Sections were counterstained, dehydrated, mounted and examined. The intensity of the immuno-peroxidase staining was graded as described previously. Expression of cytokines was graded as: 0, no staining in the section; 1, less than 25% of the section; 2, 25-50% of the section; 3, 50-75% of the section; 4, >75% of the section with significant staining.

For data set [3], the system named is MMP-9. The experiment in a line: Immunohistochemical staining of colon tissue. Type of data set: in vivo, rat. Conditions: oral treatment, five days. On the procedure:
as §1

The subject of another data set is IL-1β. The experiment in a line: Immunohistochemical staining of colon tissue. Type of data set: in vivo, rat. Particulars: oral treatment, five days. On the procedure:
as §1

The test system of data set [4] is DNBS-induced colitis. In words: DNBS-induced colitis in rat: colon histopathological inflammation score. Type of data set: in vivo. Particulars: oral 100 mg/kg, five days. On the procedure:
Histopathology: A piece of colonic tissue at 2-4 cm proximal to the anus was excised and fixed in 10% formalin and the sections were stained with hematoxylin and eosin. The remaining length of the colonic tissues was stored at −80° C. for subsequent biochemical assays. The histology slides were examined by a veterinary pathologist who was blinded to the treatment groups. The extent of microscopic mucosal damage of the colon was scored on scale of 0-5 as described with slight modification: 0=normal histological appearance; 1=histological damage limited to surface epithelium, mild infiltration of the submucosa; 2=focal ulceration and cell disruption limited to mucosa, abnormal appearance of colonic wall, mild infiltration of inflammatory cells; 3=focal, transmural inflammation and ulceration, with mild to moderate infiltration of inflammatory cells; 4=Extensive transmural ulceration and inflammation bordered by areas of normal mucosa, moderate infiltration of inflammatory cells; 5=extensive transmural ulceration and inflammation involving entire section from epithelium to serosa, severe infiltration of inflammatory cells.

Data set [5] relates to MMP-9. The experiment in a line: Gelatin zymography of colonic homogenates. Type of data set: in vivo, rat. Conditions: oral 100 mg/kg. On the procedure: Gelatin Zymography Activities of MMP-9 and MMP-2 in colonic tissue homogenates were determined by gelatin zymography as described previously. Briefly, colonic homogenates were mixed with equal volume of zymograph sample buffer. Samples were loaded on a 10% SDS-polyacrylamide gel containing 0.1% gelatin. After electrophoresis, the SDS was removed from the gel by incubation with renaturing buffer containing 2% Triton-X-100 for 1 hour. The gel was incubated overnight in developing buffer containing 50 mM Tris-HCl, pH 7.8, 5 mM CaCl2, 0.2 M NaCl, 0.02% Brij-35. The gel was subsequently stained with Coumassie blue for 30 minutes and destained with destaining solution containing 8% acetic acid and 4% methanol. Gelatinolytic activity was determined as transparent bands against the blue background of stained gelatin. MMPs were identified by their molecular weight compared with the standards. Absence of a transparent band on the gel was evidenced as no MMP-9 or MMP-2 activity of the sample tested.

For data set [6], the system named is DNBS-induced colitis. In words: DNBS-induced colitis in rat: total IBD score. In kind it is in vivo.
Text: Animals: Male Sprague-Dawley rats, weighing approximately 250-300 gm were purchased from Charles River Laboratories (Raleigh, N.C.). The animals were housed under standard conditions with free access to food and water. They were acclimatized for 2-3 days before commencing the experiments. The study protocol was approved by the Institutional Animal Care and Use Committees (IACUC).
Induction of ulcerative colitis: Colitis was produced according to published methods. Animals were anesthetized by intraperitoneal injection of 75 mg/kg of ketamine plus 5 mg/kg of xylazine. A single intracolonic injection of 120 mg/ml of dinitrobenzenesulfonic acid (DNBS) (Sigma Chemicals, St. Louis, Mo.) in 250 micro liter of 50% ethanol was administered through a Tom Cat catheter (Kendall Sovereign, Mansfield, Mass.) with a closed-end tip, connected to a 1 ml syringe and placed 7 cm proximal to the anus. Lubricant was applied to the tip of the catheter before injection, to protect from mucosal injury. After instillation of DNBS, 0.5 ml of air was insufflated and the catheter was removed.
Sulfasalazine (Sigma Chemicals, St Louis, Mo.), at a concentration of 120 mg/ml for intracolonic treatment and 30 mg/ml for oral treatment was used as the reference drug in all the experiments. Sulfasalazine was first dissolved in 0.1M NaOH at a concentration about 30-fold higher than the required final concentration, and then suspended in 1.5% PVA for oral dosing and 5.7% PVA for intracolonic dosing.
One group was not treated and served as no treatment group. Treatment began one day after administration of DNBS.
Macroscopic Observations: Body weight was recorded daily and the animals were examined for their physical appearance. After five days of treatment, animals were sacrificed. The colon was excised between the ileocecal junction and rectum, and opened longitudinally. After scoring of the consistency of the stool the colon was rinsed in normal saline, examined and thickness of the colonic wall and number and size of ulcers were scored. Stool consistency was graded on a scale of 0-3: 0=normal stool, well formed pellets rigid as normal; 1=loose stool, formed pellet with moisture, soft stool keeping in stool shape; 2=loose stool, stools that have abnormal form with much moisture, softer shapeless stool; 3=watery or bloody diarrhea.
Thickness of colonic wall was graded on a scale of 0-4: 0=normal, no thickness; 1=mild thickness in lower portion of the colon; 2=moderate thickness in localized area; 3=moderate thickness extending to the central portion of the colon; 4=severe thickness in the whole colon. Colonic ulceration was graded on a scale of 0-10: 0=no ulcers; 1=one small ulcer less than 2-3 mm; 2=one large ulcer more than 2-3 mm; 3=two large ulcerations more than 2-3 mm in diameter; 4=two or more sites of ulcerations extending 1 cm along the length; 5-10=when an area of ulceration extended more than 1 cm along the length of the colon, the score increases by 1 for each additional cm of involvement. The total IBD score, obtained by the sum of the scores of colonic ulcer, colon thickness and stool consistency for each animal, was calculated for each treatment group.
Methods: Colitis was induced in rats using DNBS as described in Example 25. Animals were treated intracolonically (250 μl of the test reagents) once a day for five days. […] Methods: Colitis was induced in rats using DNBS as described in Example 25. Animals were treated intracolonically (250 μl of the test reagents) once a day for five days.
The nature of data set [7]: DNBS-induced colitis in rat: body weight. Conditions: rats with DNBS colitis, intracolonic or oral treatment. Type of data set: in vivo.
A further data set has as its system Pseudomonas aeruginosa. The experiment in a line: MIC assay (microdilution). In kind it is cell-based.
In a further data set the test system is Streptococcus pneumoniae. The experiment in a line: MIC assay (microdilution). Particulars: lactate solutions. Type of data set: cell-based.
Data set [8] relates to Staphylococcus epidermidis. In words: MIC assay (microdilution). Type of data set: cell-based. Particulars: S. epiderm (ATCC); lactate solutions.
The test system of a further data set is Streptococcus pyogenes. The experiment in a line: MIC assay (microdilution). Type of data set: cell-based. Particulars: lactate solutions.
Another data set relates to Staphylococcus aureus. In words: MIC assay (microdilution). In kind it is cell-based. Particulars: lactate solutions.

In brackets after ≈: the same amount, converted by molar mass. Entries after “also recorded” stand apart in the source; their conditions may differ. Read-outs that look alike come from different tables or passages of the source.

In the case of `OCc1ccccc1` [Benzyl alcohol], in data set [1], the “Reaction with nanocrystalline silver” value is listed as “Grey/slightly red”.
On to `CCCCCCCCCCCCCCCCCCO` [Cetearyl alcohol], for which the “Reaction with nanocrystalline silver” value in [1] is on record as “Light brown/green/black”.
Consider `CCCCCCCCCCCCCCCCO` [Cetyl alcohol], for which the “Reaction with nanocrystalline silver” value in [1] is “Grey color - no discoloration”.
In the case of `CCCCCCCCCCCCCCCCCC(=O)OCC(O)CO` (centres unmarked) [Glycerol monostearate], the “Reaction with nanocrystalline silver” value in [1] is reported as “Brown discoloration”.
The same measure, in the same setting: then `CCCCCCCCCCCCCC(=O)OC(C)C` [Isopropyl myristate], with “Grey color - no discoloration”; and `COC(=O)c1ccc(O)cc1` [Methylparaben], with “Brown discoloration”; and `CC(O)CO` (centres unmarked) [Propylene glycol], with “Discoloration”.
Take `CCCOC(=O)c1ccc(O)cc1` [Propylparaben]: the “Reaction with nanocrystalline silver” value in data set [1] is “Green discoloration”.
As to `OO` [Sample H2O2, hydrogen peroxide], the MIC was more than 500 µg/mL with Escherichia coli (SOD and catalase +); 31 µg/mL (≈ 911 µM) with Escherichia coli (SOD and catalase −); more than 500 µg/mL in the data set on Enterobacter cloacae (SOD and catalase +); 63 µg/mL (≈ 1850 µM) against Enterobacter cloacae (SOD and catalase −). For the same molecule, the “Reaction with nanocrystalline silver” value in data set [1] is listed as “Brown discoloration after drying”.
With `O=C([O-])c1ccccc1.[Na+]` [Sodium benzoate], the “Reaction with nanocrystalline silver” value in data set [1] is “White precipitate”.
On to `CCCCCCCCCCCCCCCCCC(=O)O` [Stearic acid], for which the “Reaction with nanocrystalline silver” value in [1] is listed as “Grey color - no discoloration”.
With `CCOCCOCCO` [Transcutol, diethylene glycol monoethyl ether], the “Reaction with nanocrystalline silver” value in data set [1] was “Grey color - no discoloration”.
`CC[C@@H](CO)NCCN[C@@H](CC)CO` [ethambutol] yielded an MIC in data set [2] (Mycobacterium tuberculosis) of 2 µg/mL (≈ 9.79 µM).
For `O=C(O)c1cc(/N=N/c2ccc(S(=O)(=O)Nc3ccccn3)cc2)ccc1O` [sulfasalazine, salicylazosulfapyridine], in the data set with TNF-α, the “expression of TNF-α in colonic tissue” value is “significantly reduced the expression of TNF-α and IL-1β”. For the same molecule, in the data set on MMP-9 [3], the “expression of MMP-9 in colonic tissue” value is listed as “significantly reduced the expression of MMP-9”. For the same molecule, the “expression of IL-1β in colonic tissue” value in the data set on IL-1β is “significantly reduced the expression of TNF-α and IL-1β”. Further, the histopathological inflammation score result in the data set with DNBS-induced colitis [4] was “significantly reduced the histopathological inflammation”. In addition, the MMP-9 activity entry with MMP-9 [5] was “reduced MMP-9 activity”. The “total IBD score” value in the data set with DNBS-induced colitis [6] (intracolonic 100 mg/kg, five days) is given as “Significant reduction of IBD score; also recorded: significantly reduced total IBD score”; in the data set with DNBS-induced colitis [6] (intracolonic 100 mg/kg, five days, listed as Sulfasalazine), “significantly reduced total IBD score”; in the data set on DNBS-induced colitis [6] (oral 100 mg/kg, five days) it was “significant reduction of the IBD score”. Besides, the body weight entry in data set [7] is given as “started gaining body weight after one day of treatment”.
As to Benzalkonium chloride [BAC], the MIC against Pseudomonas aeruginosa (isolate NP220 (BAC-sensitive)) stood at 63 µg/mL; against Pseudomonas aeruginosa (isolate NP221 (BAC-resistant)), 4000 µg/mL; with Pseudomonas aeruginosa (isolate NP222 (BAC-sensitive)), 63 µg/mL.
For the molecule Sodium parabens, the “Reaction with nanocrystalline silver” value in [1] is listed as “Precipitation”.
For silver oxide [Ag2O], the MIC was determined as 0.8 µg/mL against Escherichia coli (E. coli (ATCC), lactate solutions); 2.5 μg/ml silver in data set [2]; 3 µg/mL with Streptococcus pneumoniae (S. pneumo (clin 314)); 2 µg/mL with Streptococcus pneumoniae (S. pneumo (clin 315)); 0.8 µg/mL against Pseudomonas aeruginosa (P. aerug (ATCC), lactate solutions); 2 µg/mL in the data set with Pseudomonas aeruginosa (P. aerug. (clin.), lactate solutions). Besides, the MIC in [8] amounted to 2 µg/mL; in the data set on Streptococcus pyogenes (S. pyog (clin. 303)), 2 µg/mL; with Streptococcus pyogenes (S. pyog (clin. 304)) it was 3 µg/mL; in the data set with Staphylococcus aureus (S. aureus (ATCC)) it was 3 µg/mL; with Staphylococcus aureus (S. aureus (clin.)) it was 6 µg/mL. Also, the “total IBD score” value in the data set on DNBS-induced colitis [6] (0.05% sonicated nanodispersion, 250 μl intracolonically once a day for five days) was “but not 0.15% and 0.05%, significantly reduced”; with DNBS-induced colitis [6] (0.15% sonicated nanodispersion, 250 μl intracolonically once a day for five days), “but not 0.15% and 0.05%, significantly reduced”; in the data set on DNBS-induced colitis [6] (0.25% homogenized, 250 μl intracolonically once a day for five days), “unable to show significant reduction”; in the data set on DNBS-induced colitis [6] (0.5% homogenized, 250 μl intracolonically once a day for five days), “unable to show significant reduction”; with DNBS-induced colitis [6] (0.5% sonicated nanodispersion, 250 μl intracolonically once a day for five days, vs placebo), “significantly reduced the total IBD score”; in the data set on DNBS-induced colitis [6] (1.5% sonicated nanodispersion, 250 μl intracolonically once a day for five days), “significantly reduced the total IBD score”.

The values are drawn from US20080014247A1, “METAL-CONTAINING FORMULATIONS AND METHODS OF USE” (Nucryst Pharmaceuticals, priority 2006, published 2008).
